Experimental data reported in US12545677B2, “Compounds useful as factor XIa inhibitors” (JANSSEN PHARMACEUTICA NV, priority 2020, dated 2026).

Assays:
[1] = biological target: human plasma kallikrein (Homo sapiens, UniProt P03952); assay: Kallikrein inhibition assay utilizing quenched AMC peptide substrate; type: biochemical; settings: read-out: Plasma kallikrein (PK) IC50
Method: Biological Example 2: Kallikrein Inhibition Assay
Utilizing Quenched AMC Peptide Substrate
A fluorescence intensity-based assay was used to monitor inhibition of human plasma kallikrein. The peptide substrate, Z-Gly-Pro-Arg-AMC (Purchased from Bachem; Catalog #1-1150) was chosen based on its relatively low KM for kallikrein which enables running the assay at lower substrate concentrations to control background fluorescence. The kinetic parameters for this substrate were determined by fitting titration data to the Michaelis-Menten equation yielding a KM=40 μM, kcat=0.76 s^−1, and kcat/KM=18932 M^−1s^−1.
Kallikrein FLINT assay was used with the following Z-Gly-Pro-Arg-AMC assay buffer: 50 mM Tris, pH 7.5, 100 mM NaCl, 5 mM CaCl2, 0.1 mg/mL BSA, 0.03% CHAPS. Assay buffer was prepared by mixing all ingredients fresh. 2× Z-Gly-Pro-Arg-AMC peptide substrate was prepared by diluting 10 mM stock into 1× assay buffer for a 100 μM working concentration (50 μM final concentration). The 2× kallikrein stock solution was prepared by diluting 14.76 μM stock in 1× assay buffer for a 4 nM working stock solution (2 nM final concentration).
Test compound(s) were run in an 11-point, 3-fold serial dilution with a final top compound concentration of 1 μM. Final DMSO in assay: 2% DMSO. 2 nM kallikrein and test compound were pre-incubated for 30 minutes and 50 μM substrate was then added to initiate the reaction. The assay was linear using 2 nM kallikrein greater than 30 minutes. More specifically, the assay was run as follows: • 100 nL of 1 mM test compound was dispensed into a black 384-well non-binding Greiner BioOne 784900 plate for 10 μM final concentration with 1% DMSO final concentration; • 5 μL of 1× assay buffer was dispensed to columns 24 (low control) and 5 μL 2× human kallikrein enzyme solution was dispensed to columns 1-23 (column 23 high control); • the plate was centrifuged with a cover plate at 500 rpm for 1 min • the plate was pre-incubated for 30 minutes at room temperature with plate covered; • 5 μL of 2× Z-Gly-Pro-Arg-AMC peptide substrate was dispensed into the entire plate, columns 1-24; • the plate was centrifuged with a “cover” plate at 500 rpm for 1 min; • the plate was read kinetically monitoring fluorescence intensity on the BMG PHERAStar at room temperature, using fluorescence module F1 340 mm/440 mm.
(§1) Percent inhibition (IC50) curves were generated per compound tested, and data was analyzed using a 4-parameter logistic fit using GeneData Screener. […]

[2] = biological target: Factor XIa (Homo sapiens, UniProt P03951); assay: Factor XIa inhibition assay using fluorophore-quencher pair peptide substrate; type: biochemical
Sequence of Factor XIa (P03951 388-625 limits assumed): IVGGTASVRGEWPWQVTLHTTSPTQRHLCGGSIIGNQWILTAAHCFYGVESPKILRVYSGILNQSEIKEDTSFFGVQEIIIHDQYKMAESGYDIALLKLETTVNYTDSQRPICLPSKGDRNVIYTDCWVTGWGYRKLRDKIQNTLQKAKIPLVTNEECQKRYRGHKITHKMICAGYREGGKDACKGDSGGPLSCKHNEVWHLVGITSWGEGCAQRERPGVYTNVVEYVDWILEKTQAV
Sequence of Factor XIa (P03951 19-387 partner limits assumed): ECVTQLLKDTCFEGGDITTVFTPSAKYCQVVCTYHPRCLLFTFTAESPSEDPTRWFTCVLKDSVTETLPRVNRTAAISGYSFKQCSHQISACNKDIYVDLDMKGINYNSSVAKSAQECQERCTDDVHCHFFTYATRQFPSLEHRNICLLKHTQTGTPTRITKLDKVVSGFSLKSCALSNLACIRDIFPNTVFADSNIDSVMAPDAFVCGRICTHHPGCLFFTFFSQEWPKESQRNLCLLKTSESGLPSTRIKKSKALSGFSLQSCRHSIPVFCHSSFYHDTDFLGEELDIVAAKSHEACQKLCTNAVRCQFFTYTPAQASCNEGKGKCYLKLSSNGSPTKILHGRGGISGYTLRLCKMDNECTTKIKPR
Excerpt: Biological Example 1: Factor XIa Inhibition Assay
Using Fluorophore-quencher Pair Peptide Substrate
A fluorescence intensity-based assay was used to monitor inhibition of Factor XIa. The peptide substrate, 5Fam-[…]-K5Tamra (purchased from New England Peptide) was chosen based on the […]. Conversion of zymogen FIX to its activated form, FIXa, occurs by proteolytic cleavage by FXIa at two sites, Arg146 and Arg180. The custom peptide used in this assay was based on the Arg146 cleavage site. The peptide substrate was designed with a fluorophore-quencher pair, where the fluorescence is quenched until FXIa cleaves the 8-mer peptide after the Arg residue.
Factor XIa FLINT assay was used with the following 5Fam-[…]-K5Tamra assay buffer: 50 mM Tris, pH 7.5, 100 mM NaCl, 5 mM CaCl2, 0.1 mg/mL BSA, 0.03% CHAPS was used. Assay buffer was prepared by mixing all ingredients fresh. 2×5Fam-[…]-K5Tamra peptide substrate was first prepared in 100% DMSO, then diluted 10 mM to 3 mM in 100% DMSO. Assay buffer was then added directly to the 3 mM stock of substrate to prepare the 30 μM 2× working concentration (15 μM final concentration). The 2× Factor XIa stock solution was prepared by diluting 6.562 μM stock in 1× assay buffer for a 200 pM working stock solution (100 pM final concentration).
Test compound(s) were run in an 11-point, 3-fold serial dilution with a final top compound concentration of […]. Final DMSO in assay was 2% DMSO. FXIa and compound were pre-incubated for 30 minutes and substrate was then added to initiate the reaction. The assay was linear using 100 pM FXIa greater than 30 minutes. More specifically, the assay was run as follows: • 100 nL of 1 mM test compound was dispensed into a black 384-well non-binding Greiner BioOne 784900 plate for 10 μM final concentration with 1% DMSO final concentration; • 5 μL of 1× assay buffer was dispensed to column 24 (low control) and 5 μL 2× Factor XIa solution was dispensed to columns 1-23 (column 23 high control); • the plate was centrifuged with a “cover” plate at 500 rpm for 1 min • the plate was pre-incubated for 30 minutes at room temperature with plate covered; • 5 μL of 2× 5Fam-[…]-K5Tamra peptide substrate was dispensed into the entire plate, columns 1-24; • the plate was centrifuged with a cover plate at 500 rpm for 1 min; • the plate was read kinetically monitoring fluorescence intensity on the BMG PHERAStar at room temperature, using fluorescence module F1 485 mm/520 mm.
as §1

[3] = tested on: human hepatocytes; assay: In vitro metabolism in human cryopreserved hepatocytes; type: in vitro ADME; settings: positive control, 10 μM, 1×10^6 cells/mL, 3 hours
Method: In Vitro Metabolism of in Human Cryopreserved Hepatocytes
The human hepatocytes used for in vitro metabolism of the compound of formula (I-A) were purchased from Bioreclamation IVT (Westbury, NY); cryopreserved human hepatocytes (lot number: UYG).
Cryopreserved hepatocytes were rapidly thawed […] vials were placed in a 37° C. water bath for approximately 90 sec, then immediately added to pre-warmed hepatocyte thawing media. The cells were resuspended within the media and then centrifuged at 700×g for 7 minutes at room temperature.
The supernatant was discarded, and the cells were resuspended in 2 mL of Krebs-Henseleit buffer containing 12.5 mM HEPES pH 7.4 (KHB). Cell viability and yield were determined by Trypan Blue exclusion. The hepatocytes were then diluted in KHB to a cell concentration of 2×10^6 cells/mL (500 μL/well in 10 mL glass tubes). The tubes were placed on a rotary shaker in a humidifier incubator supplied with 5% CO2 and allowed 15 minutes acclimation at 37° C. prior to use. The compound of formula (I-A) or positive control, diclofenac (10 μM), in KHB was then added to the hepatocytes to achieve a final concentration of 10 μM and cell concentration of 1×10^6 cells/mL (1000 μL final incubation volume). Cells were incubated for zero or 3 hours. At the end of the incubation period, the cells were quenched with 6-volumes of ice-cold acetonitrile containing 0.02% formic acid, vortexed and sonicated (5 min). Precipitated proteins were pelleted by centrifugation (3000 rpm, 10 minutes, 4° C.) and the supernatant was transferred to borosilicate tubes and evaporated to dryness under a gentle stream of nitrogen.
The resulting residue after evaporation was reconstituted in 250 μL of water:acetonitrile (9:1 v/v) containing 0.01% formic acid with sonication and vortexing to aid solubilization of drug-derived materials prior to filtration using 0.45μ nylon filter at 10,000×g at room temperature for 10 minutes. The filtrate was transferred to a 96-well plate for liquid chromatography/ultraviolet/mass spectrometry (LC-UV/MS) analysis.
LC/UV/MS (Liquid Chromatography/Ultraviolet/Mass Spectrometry)
LTQ/Orbitrap (Thermo Scientific, Inc., Bremen, Germany) was carried out by data-dependent accurate mass measurements at resolving powers of 15,000 for full scan MS and 7,500 for MS^2 (also known as MS/MS or tandem mass spec) under single ion locked mass mode.
Quantification of the unchanged drug and its metabolites was carried out by integration of the individual chromatographically separated UV peaks and provided the percentage of total peak area.

Sequence of human plasma kallikrein (P03952 391-638 limits assumed): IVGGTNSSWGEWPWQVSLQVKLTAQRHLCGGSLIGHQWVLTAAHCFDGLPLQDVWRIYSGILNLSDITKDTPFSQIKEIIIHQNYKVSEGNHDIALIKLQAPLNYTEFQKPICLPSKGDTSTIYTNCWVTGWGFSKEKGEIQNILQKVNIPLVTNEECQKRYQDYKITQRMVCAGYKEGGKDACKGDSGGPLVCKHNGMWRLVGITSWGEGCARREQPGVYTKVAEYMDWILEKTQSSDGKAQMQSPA
Sequence of human plasma kallikrein (P03952 20-390 partner limits assumed): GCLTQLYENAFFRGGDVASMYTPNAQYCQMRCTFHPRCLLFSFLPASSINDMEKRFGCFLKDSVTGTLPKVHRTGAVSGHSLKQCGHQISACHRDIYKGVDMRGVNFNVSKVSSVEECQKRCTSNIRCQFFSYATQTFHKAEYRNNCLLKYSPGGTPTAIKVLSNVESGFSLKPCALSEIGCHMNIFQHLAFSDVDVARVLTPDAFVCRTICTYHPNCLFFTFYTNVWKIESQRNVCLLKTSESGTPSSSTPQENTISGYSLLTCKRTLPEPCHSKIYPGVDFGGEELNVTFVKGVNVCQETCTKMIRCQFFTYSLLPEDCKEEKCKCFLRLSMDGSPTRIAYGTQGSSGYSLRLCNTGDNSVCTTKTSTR

SMILES	IC50 [1] [nM]	IC50 [2] [nM]	turnover from human hepatocytes [3] [%]
[2H]C1([2H])C[C@@H](c2ncc(-c3ccnc(CO)c3F)[nH]2)N2C(=O)C=C(c3c(-n4cnnn4)ccc(Cl)c3F)C([2H])([2H])[C@]21[2H] (single isomer, unassigned) [Compound of formula (I-G)]	–	3.9	–
[2H]C1([2H])C(c2c(-n3cnnn3)ccc(Cl)c2F)=CC(=O)N2[C@H](c3ncc(-c4ccnc(CO)c4F)[nH]3)CC[C@@]21[2H] (single isomer, unassigned) [Compound of formula (I-K)]	9.7	–	–
O=C(O)Cc1ccccc1Nc1c(Cl)cccc1Cl [diclofenac, reference compound]	–	–	89

Now from value to compound:

IC50 [1] [nM]	IC50 [2] [nM]	turnover from human hepatocytes [3] [%]	SMILES
34	5.1	–	[2H]C([2H])(O)c1nccc(-c2cnc([C@@H]3CCC4([2H])CC(c5c(-n6cnnn6)ccc(Cl)c5F)=CC(=O)N34)[nH]2)c1F (single isomer, unassigned) [Compound of formula (I-F), (3S,8aR*)-7-(3-Chloro-2-fluoro-6-(1H-tetrazol-1-yl)phenyl)-3-(5-(3-fluoro-2-(hydroxymethyl-d2)pyridin-4-yl)-1H-imidazol-2-yl)-2,3,8,8a-tetrahydroindolizin-5(1H)-one-8a-d]
32	4.1	–	[2H]c1nnnn1-c1ccc(Cl)c(F)c1C1=CC(=O)N2[C@@H](CC[C@@H]2c2ncc(-c3ccnc(C([2H])([2H])O)c3F)[nH]2)C1 (stereo in doubt) [Compound of formula (I-J), (3R,8aS)-7-(3-Chloro-2-fluoro-6-(1H-tetrazol-1-yl-d)phenyl)-3-(4-(3-fluoro-2-(hydroxymethyl-d2)pyridin-4-yl)-1H-imidazol-2-yl)-2,3,8,8a-tetrahydroindolizin-5(1H)-one]
